According to PubChem BioAssay AID599 (The Scripps Research Institute Molecular Screening Center, 2007):
Calls of active or inactive are those of the source. The rule behind the calls is not given here.

Target: Nuclear receptor ROR-alpha (Homo sapiens) (UniProt P35398)
Assay: RORA reporter inhibition, dose response, counter-screen for SF-1 inhibitor project, cell-based (AID 599)

Sequence of Nuclear receptor ROR-alpha (Homo sapiens) (P35398 whole entry, looked up): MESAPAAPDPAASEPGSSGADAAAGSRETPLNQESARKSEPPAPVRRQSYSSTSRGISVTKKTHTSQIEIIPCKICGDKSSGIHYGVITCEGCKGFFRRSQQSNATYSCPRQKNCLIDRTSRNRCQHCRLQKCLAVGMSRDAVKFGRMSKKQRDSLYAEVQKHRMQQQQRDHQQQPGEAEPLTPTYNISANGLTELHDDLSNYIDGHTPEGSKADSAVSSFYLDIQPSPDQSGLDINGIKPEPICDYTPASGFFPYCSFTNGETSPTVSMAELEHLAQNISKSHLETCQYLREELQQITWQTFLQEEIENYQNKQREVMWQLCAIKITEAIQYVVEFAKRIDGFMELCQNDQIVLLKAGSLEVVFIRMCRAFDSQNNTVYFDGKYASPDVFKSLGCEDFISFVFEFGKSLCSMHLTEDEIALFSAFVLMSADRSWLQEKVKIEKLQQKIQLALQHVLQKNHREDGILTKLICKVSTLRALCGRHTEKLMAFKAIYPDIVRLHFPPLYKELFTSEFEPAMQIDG

SMILES | IC50
N#CC1=C(N)C(C#N)(C#N)[C@H](c2ccncc2)[C@H]2CN(C(=O)OCc3ccccc3)CC=C12 | inactive
O=C(/C=C\Nc1cccc(F)c1)c1ccc2c(c1)OCO2 | 5.54 µM
COc1cc(C2C(C#N)=C(C)NC3=C2C(=O)c2ccccc23)cc(OC)c1OC (centres undefined) | 4.75 µM
CCOC(=O)C1=C(Cn2cnc3ccccc32)NC(=O)NC1c1cc(C)ccc1C (centres undefined) | > 11 µM (inactive)
Cc1ccc(C(=O)/C=C/Nc2ccccn2)cc1 | inactive
CCOc1ccccc1-n1c(SCC(=O)Nc2ccc(CC)cc2)nc2n[nH]c(C)c2c1=N | 6.54 µM
CC(=O)CC1OC(=O)C(Br)=C1NCc1ccccc1 (centres undefined) | 9.45 µM
O=C(/C=C\Nc1ccc2c(c1)OCO2)c1ccccn1 | > 11 µM (inactive)
CN(C)c1ccc2c(c1)OC(N)=C(C#N)C2c1cccc(F)c1 (centres undefined) | inactive
COc1cc(C2C(C#N)=C(N)Oc3cc(N(C)C)ccc32)cc2c1OCO2 (centres undefined) | > 3.67 µM (inactive)
COC(=O)c1ccc(N2C(=O)CC(N3CCC(n4c(=O)[nH]c5ccccc54)CC3)C2=O)cc1 (centres undefined) | > 99 µM (inactive)
CCN(CC)c1ccc2c(c1)OC(N)=C(C#N)C2c1cccnc1 (centres undefined) | inactive
COC(=O)C1=C(CN2CCCc3ccccc32)NC(=O)NC1c1ccc(F)cc1 (centres undefined) | 3.59 µM
COc1cc(/C=N/O)ccc1OCc1ccc(C(=O)O)cc1 | 0.967 µM
O=C(/C=C\Nc1ccccn1)c1ccc(Cl)cc1 | 7.08 µM
CSC1=C(C#N)C(c2ccc(Cl)cc2)C2=C(CC(C)(C)CC2=O)N1 (centres undefined) | inactive
CN(C)c1ccc(N/C=C/C(=O)c2ccccc2)cc1 | inactive
O=S(=O)(c1ccc2c(c1)C(=NO)c1cc(S(=O)(=O)N3CCCCC3)ccc1-2)N1CCCCC1 | 1.93 µM
COc1cc(C2C(C#N)=C(N)Oc3cc(N)ccc32)cc(OC)c1OC (centres undefined) | inactive
